{"source": "the NIST ThermoML archive (doi:10.1016/j.fluid.2006.01.026)", "conditions": "101.33 kPa, Liquid; for viscosity: Capillary tube (Ostwald / Ubbelohde) method; for mass density: Vibrating tube method", "note": "Numbers after ± are expanded uncertainties."}
{"smiles": "CCCCCCCCCCCCCC[P+](CCCC)(CCCC)CCCC.O=S(=O)([O-])C(F)(F)C(F)C(F)(F)F", "values": [{"measurement": "viscosity", "setting": "283.15 K", "value": "2512 ± 300", "unit": "mPa·s"}, {"measurement": "mass density", "setting": "283.15 K", "value": "1082 ± 2", "unit": "kg/m3"}, {"measurement": "viscosity", "setting": "293.15 K", "value": "1103 ± 120", "unit": "mPa·s"}, {"measurement": "mass density", "setting": "298.15 K", "value": "1070 ± 2", "unit": "kg/m3"}, {"measurement": "viscosity", "setting": "303.15 K", "value": "539 ± 58", "unit": "mPa·s"}, {"measurement": "viscosity", "setting": "313.15 K", "value": "289 ± 30", "unit": "mPa·s"}, {"measurement": "viscosity", "setting": "323.15 K", "value": "167 ± 17", "unit": "mPa·s"}, {"measurement": "mass density", "setting": "323.15 K", "value": "1052 ± 2", "unit": "kg/m3"}, {"measurement": "viscosity", "setting": "333.15 K", "value": "103 ± 10", "unit": "mPa·s"}, {"measurement": "viscosity", "setting": "343.15 K", "value": "66.6 ± 6.7", "unit": "mPa·s"}, {"measurement": "mass density", "setting": "348.15 K", "value": "1034 ± 2", "unit": "kg/m3"}, {"measurement": "viscosity", "setting": "353.15 K", "value": "45 ± 4.5", "unit": "mPa·s"}, {"measurement": "viscosity", "setting": "363.15 K", "value": "31.5 ± 3.2", "unit": "mPa·s"}, {"measurement": "viscosity", "setting": "373.15 K", "value": "22.6 ± 2.3", "unit": "mPa·s"}]}
{"smiles": "CCCC[n+]1ccn(C)c1.O=S(=O)([O-])C(F)(F)C(F)C(F)(F)F", "note": "(stereo not drawn)", "values": [{"measurement": "viscosity", "setting": "283.15 K", "value": "853 ± 94", "unit": "mPa·s"}, {"measurement": "viscosity", "setting": "293.15 K", "value": "378 ± 40", "unit": "mPa·s"}, {"measurement": "viscosity", "setting": "303.15 K", "value": "192 ± 20", "unit": "mPa·s"}, {"measurement": "viscosity", "setting": "313.15 K", "value": "108 ± 11", "unit": "mPa·s"}, {"measurement": "viscosity", "setting": "323.15 K", "value": "66.8 ± 6.8", "unit": "mPa·s"}, {"measurement": "viscosity", "setting": "333.15 K", "value": "44.2 ± 4.5", "unit": "mPa·s"}, {"measurement": "viscosity", "setting": "343.15 K", "value": "30.8 ± 3.1", "unit": "mPa·s"}, {"measurement": "viscosity", "setting": "353.15 K", "value": "22.3 ± 2.2", "unit": "mPa·s"}, {"measurement": "viscosity", "setting": "363.15 K", "value": "16.6 ± 1.7", "unit": "mPa·s"}, {"measurement": "viscosity", "setting": "373.15 K", "value": "12.5 ± 1.3", "unit": "mPa·s"}]}
{"smiles": "CCCCCCCCCCCCCC[P+](CCCCCC)(CCCCCC)CCCCCC.O=S(=O)([O-])C(F)(F)C(F)OC(F)(F)C(F)(F)F", "values": [{"measurement": "viscosity", "setting": "283.15 K", "value": "1319 ± 150", "unit": "mPa·s"}, {"measurement": "mass density", "setting": "283.15 K", "value": "1075 ± 2", "unit": "kg/m3"}, {"measurement": "viscosity", "setting": "293.15 K", "value": "625 ± 68", "unit": "mPa·s"}, {"measurement": "mass density", "setting": "298.15 K", "value": "1063 ± 2", "unit": "kg/m3"}, {"measurement": "viscosity", "setting": "303.15 K", "value": "330 ± 35", "unit": "mPa·s"}, {"measurement": "viscosity", "setting": "313.15 K", "value": "191 ± 20", "unit": "mPa·s"}, {"measurement": "viscosity", "setting": "323.15 K", "value": "118 ± 12", "unit": "mPa·s"}, {"measurement": "mass density", "setting": "323.15 K", "value": "1044 ± 2", "unit": "kg/m3"}, {"measurement": "viscosity", "setting": "333.15 K", "value": "77.4 ± 7.8", "unit": "mPa·s"}, {"measurement": "viscosity", "setting": "343.15 K", "value": "52.9 ± 5.3", "unit": "mPa·s"}, {"measurement": "mass density", "setting": "348.15 K", "value": "1025 ± 2", "unit": "kg/m3"}, {"measurement": "viscosity", "setting": "353.15 K", "value": "37.2 ± 3.8", "unit": "mPa·s"}, {"measurement": "viscosity", "setting": "363.15 K", "value": "26.7 ± 2.7", "unit": "mPa·s"}, {"measurement": "viscosity", "setting": "373.15 K", "value": "19.3 ± 1.9", "unit": "mPa·s"}]}
{"smiles": "CCCCn1cc[n+](C)c1.O=S(=O)([O-])C(F)(F)C(F)OC(F)(F)C(F)(F)F", "note": "(stereo not drawn)", "values": [{"measurement": "viscosity", "setting": "283.15 K", "value": "1021 ± 110", "unit": "mPa·s"}, {"measurement": "viscosity", "setting": "293.15 K", "value": "444 ± 48", "unit": "mPa·s"}, {"measurement": "viscosity", "setting": "303.15 K", "value": "218 ± 23", "unit": "mPa·s"}, {"measurement": "viscosity", "setting": "313.15 K", "value": "119 ± 12", "unit": "mPa·s"}, {"measurement": "viscosity", "setting": "323.15 K", "value": "71.2 ± 7.2", "unit": "mPa·s"}, {"measurement": "viscosity", "setting": "333.15 K", "value": "45.9 ± 4.6", "unit": "mPa·s"}, {"measurement": "viscosity", "setting": "343.15 K", "value": "31.6 ± 3.2", "unit": "mPa·s"}, {"measurement": "viscosity", "setting": "353.15 K", "value": "22.9 ± 2.3", "unit": "mPa·s"}, {"measurement": "viscosity", "setting": "363.15 K", "value": "17.3 ± 1.7", "unit": "mPa·s"}, {"measurement": "viscosity", "setting": "373.15 K", "value": "13.5 ± 1.4", "unit": "mPa·s"}]}
{"smiles": "CCCCn1cc[n+](C)c1.O=S(=O)([O-])C(F)(F)C(F)OC(F)(F)F", "note": "(stereo not drawn)", "values": [{"measurement": "viscosity", "setting": "283.15 K", "value": "626 ± 68", "unit": "mPa·s"}, {"measurement": "viscosity", "setting": "293.15 K", "value": "298 ± 31", "unit": "mPa·s"}, {"measurement": "viscosity", "setting": "303.15 K", "value": "159 ± 16", "unit": "mPa·s"}, {"measurement": "viscosity", "setting": "313.15 K", "value": "93 ± 9", "unit": "mPa·s"}, {"measurement": "viscosity", "setting": "323.15 K", "value": "59 ± 6", "unit": "mPa·s"}, {"measurement": "viscosity", "setting": "333.15 K", "value": "39.8 ± 4", "unit": "mPa·s"}, {"measurement": "viscosity", "setting": "343.15 K", "value": "28.2 ± 2.8", "unit": "mPa·s"}, {"measurement": "viscosity", "setting": "353.15 K", "value": "20.7 ± 2.1", "unit": "mPa·s"}, {"measurement": "viscosity", "setting": "363.15 K", "value": "15.6 ± 1.6", "unit": "mPa·s"}, {"measurement": "viscosity", "setting": "373.15 K", "value": "11.9 ± 1.2", "unit": "mPa·s"}]}
